# Test results from PMC9823097, “Dysregulation of PRMT5 in chronic lymphocytic leukemia promotes progression with high risk of Richter’s transformation” (Nature Communications, 2023).
# Values joined by “and” are separate entries in the source; they are usually repeats but may differ in a detail not shown here. Equal entries are not always repeated.
# Assays:
# PRMT5 in Mec-1 cell line = experiment: Cas9-mediated doxycycline-inducible knockout of PRMT5, Mec-1 proliferation; assay type: cell-based; conditions: +doxy
# Description: Proteins extracted from whole-cell lysates were resolved by SDS-PAGE and transferred on nitrocellulose membrane as previously described. CpG685 oligonucleotide was obtained from the OSU Cytogenetics Core Lab. Antibodies used for immunoblots included anti-human PRMT5 (Abcam #ab109451), GAPDH (Millipore Sigma #MAB374), SDMA (Cell Signaling Technology #13222), c-Myc (Cell Signaling Technology #5605S), and β-Actin (Cell Signaling Technology #4967S). Cas9-mediated doxycycline-inducible knockout of PRMT5 utilized a targeted sgRNA (guide sequence: […], PAM: GGG).
# HG3 cells = experiment: Cell growth curves over 12 days, HG3; assay type: cell-based; conditions: for anti-proliferative potency compared to PRT382: HG3
# Protocol: (§1) Live cells/mL were counted on days 3, 6, 10, and 12. […] The split factor was calculated at indicated time points by dividing the counted cells/mL by 3E5. Cell growth was extrapolated over time by multiplying the subsequent cell count by the previous split factor. Cell growth is plotted as fold change relative to DMSO-treated cells.
# Mec-1 cells = experiment: Cell growth curves over 12 days, Mec-1; assay type: cell-based; conditions: for anti-proliferative potency compared to PRT382: Mec-1
# Protocol: as §1
# [1] = tested on: PRMT5 expression in CLL cells; experiment: PRMT5 mRNA and protein expression in CpG-stimulated CLL cells upon BRD4 inhibition; assay type: cell-based, human
# [2] = tested on: BRD4 occupancy at the PRMT5 locus; experiment: ChIP-seq of H3K27Ac and BRD4 binding at the PRMT5 locus; assay type: cell-based; conditions: vehicle, CpG, or PLX51107 treatment
smiles,measurement,setting,value
C[C@H]1c2cccc(O)c2C(O)=C2C(=O)[C@]3(O)C(O)=C(C(N)=O)C(=O)[C@@H](N(C)C)[C@@H]3[C@@H](O)[C@@H]21 [+doxy],Rep. 1 Live cells/mL,PRMT5 in Mec-1 cell line; 1 days treated,170000 cells/mL
same,Rep. 2 Live cells/mL,PRMT5 in Mec-1 cell line; 1 days treated,158000 cells/mL
same,Rep. 1 Live cells/mL,PRMT5 in Mec-1 cell line; 2 days treated,387000 cells/mL
same,Rep. 2 Live cells/mL,PRMT5 in Mec-1 cell line; 2 days treated,352000 cells/mL
same,Rep. 1 Live cells/mL,PRMT5 in Mec-1 cell line; 3 days treated,686000 cells/mL
same,Rep. 2 Live cells/mL,PRMT5 in Mec-1 cell line; 3 days treated,721000 cells/mL
same,Rep. 1 Live cells/mL,PRMT5 in Mec-1 cell line; 4 days treated,991000 cells/mL
same,Rep. 2 Live cells/mL,PRMT5 in Mec-1 cell line; 4 days treated,944000 cells/mL
same,Rep. 1 Live cells/mL,PRMT5 in Mec-1 cell line; 5 days treated,827000 cells/mL
same,Rep. 2 Live cells/mL,PRMT5 in Mec-1 cell line; 5 days treated,862000 cells/mL
same,Rep. 1 Live cells/mL,PRMT5 in Mec-1 cell line; 6 days treated,1180000 cells/mL
same,Rep. 2 Live cells/mL,PRMT5 in Mec-1 cell line; 6 days treated,1280000 cells/mL
Nc1ncnc2c1ccn2C1OC(C(O)c2ccc(Cl)c(F)c2)C(O)C1O (stereo not shown) [PF-06855800],Rep 1 Live Cells [Fold Change],"HG3 cells; HG3, 1 nM, day 0",1 Fold Change
same,Rep 2 Live Cells [Fold Change],"HG3 cells; HG3, 1 nM, day 0",1 Fold Change
same,Rep 1 Live Cells [Fold Change],"HG3 cells; HG3, 1 nM, day 3",3.4 Fold Change
same,Rep 2 Live Cells [Fold Change],"HG3 cells; HG3, 1 nM, day 3",6.6 Fold Change
same,Rep 1 Live Cells [Fold Change],"HG3 cells; HG3, 1 nM, day 6",16.32 Fold Change
same,Rep 2 Live Cells [Fold Change],"HG3 cells; HG3, 1 nM, day 6",45.98 Fold Change
same,Rep 1 Live Cells [Fold Change],"HG3 cells; HG3, 1 nM, day 10",137.904 Fold Change
same,Rep 2 Live Cells [Fold Change],"HG3 cells; HG3, 1 nM, day 10",282.777 Fold Change
same,Rep 1 Live Cells [Fold Change],"HG3 cells; HG3, 1 nM, day 12",482.664 Fold Change
same,Rep 2 Live Cells [Fold Change],"HG3 cells; HG3, 1 nM, day 12",1404.46 Fold Change
same,Rep 1 Live Cells [Fold Change],"HG3 cells; HG3, 10 nM, day 0",1 Fold Change
same,Rep 2 Live Cells [Fold Change],"HG3 cells; HG3, 10 nM, day 0",1 Fold Change
same,Rep 1 Live Cells [Fold Change],"HG3 cells; HG3, 10 nM, day 3",3.27 Fold Change
same,Rep 2 Live Cells [Fold Change],"HG3 cells; HG3, 10 nM, day 3",4.767 Fold Change
same,Rep 1 Live Cells [Fold Change],"HG3 cells; HG3, 10 nM, day 6",11.445 Fold Change
same,Rep 2 Live Cells [Fold Change],"HG3 cells; HG3, 10 nM, day 6",11.6783 Fold Change
same,Rep 1 Live Cells [Fold Change],"HG3 cells; HG3, 10 nM, day 10",19.7426 Fold Change
same,Rep 2 Live Cells [Fold Change],"HG3 cells; HG3, 10 nM, day 10",14.8315 Fold Change
same,Rep 1 Live Cells [Fold Change],"HG3 cells; HG3, 10 nM, day 12",31.5074 Fold Change
same,Rep 2 Live Cells [Fold Change],"HG3 cells; HG3, 10 nM, day 12",21.021 Fold Change
same,Rep 1 Live Cells [Fold Change],"HG3 cells; HG3, 100 nM, day 0",1 Fold Change
same,Rep 2 Live Cells [Fold Change],"HG3 cells; HG3, 100 nM, day 0",1 Fold Change
same,Rep 1 Live Cells [Fold Change],"HG3 cells; HG3, 100 nM, day 3",3.157 Fold Change
same,Rep 2 Live Cells [Fold Change],"HG3 cells; HG3, 100 nM, day 3",5.133 Fold Change
same,Rep 1 Live Cells [Fold Change],"HG3 cells; HG3, 100 nM, day 6",5.956 Fold Change
same,Rep 2 Live Cells [Fold Change],"HG3 cells; HG3, 100 nM, day 6",6.365 Fold Change
same,Rep 1 Live Cells [Fold Change],"HG3 cells; HG3, 100 nM, day 10",4.824 Fold Change
same,Rep 2 Live Cells [Fold Change],"HG3 cells; HG3, 100 nM, day 10",6.047 Fold Change
same,Rep 1 Live Cells [Fold Change],"HG3 cells; HG3, 100 nM, day 12",3.339 Fold Change
same,Rep 2 Live Cells [Fold Change],"HG3 cells; HG3, 100 nM, day 12",4.755 Fold Change
same,Rep 1 Live Cells [Fold Change],"HG3 cells; HG3, 1 µM, day 0",1 Fold Change
same,Rep 2 Live Cells [Fold Change],"HG3 cells; HG3, 1 µM, day 0",1 Fold Change
same,Rep 1 Live Cells [Fold Change],"HG3 cells; HG3, 1 µM, day 3",3.733 Fold Change
same,Rep 2 Live Cells [Fold Change],"HG3 cells; HG3, 1 µM, day 3",5.933 Fold Change
same,Rep 1 Live Cells [Fold Change],"HG3 cells; HG3, 1 µM, day 6",6.21 Fold Change
same,Rep 2 Live Cells [Fold Change],"HG3 cells; HG3, 1 µM, day 6",5.993 Fold Change
same,Rep 1 Live Cells [Fold Change],"HG3 cells; HG3, 1 µM, day 10",3.912 Fold Change
same,Rep 2 Live Cells [Fold Change],"HG3 cells; HG3, 1 µM, day 10",5.304 Fold Change
same,Rep 1 Live Cells [Fold Change],"HG3 cells; HG3, 1 µM, day 12",2.641 Fold Change
same,Rep 2 Live Cells [Fold Change],"HG3 cells; HG3, 1 µM, day 12",3.878 Fold Change
same,anti-proliferative potency compared to PRT382,HG3 cells; high doses (1µM),similar
same,anti-proliferative potency compared to PRT382,"HG3 cells; lower doses (10nM, 100nM)",more potent
same,Rep 1 Live Cells [Fold Change],"Mec-1 cells; Mec-1, 1 nM, day 0",1 Fold Change
same,Rep 2 Live Cells [Fold Change],"Mec-1 cells; Mec-1, 1 nM, day 0",1 Fold Change
same,Rep 1 Live Cells [Fold Change],"Mec-1 cells; Mec-1, 1 nM, day 3",5.6 Fold Change
same,Rep 2 Live Cells [Fold Change],"Mec-1 cells; Mec-1, 1 nM, day 3",6.6 Fold Change
same,Rep 1 Live Cells [Fold Change],"Mec-1 cells; Mec-1, 1 nM, day 6",24.6 Fold Change
same,Rep 2 Live Cells [Fold Change],"Mec-1 cells; Mec-1, 1 nM, day 6",45.98 Fold Change
same,Rep 1 Live Cells [Fold Change],"Mec-1 cells; Mec-1, 1 nM, day 10",216 Fold Change
same,Rep 2 Live Cells [Fold Change],"Mec-1 cells; Mec-1, 1 nM, day 10",282.777 Fold Change
same,Rep 1 Live Cells [Fold Change],"Mec-1 cells; Mec-1, 1 nM, day 12",1400 Fold Change
same,Rep 2 Live Cells [Fold Change],"Mec-1 cells; Mec-1, 1 nM, day 12",1404.46 Fold Change
same,Rep 1 Live Cells [Fold Change],"Mec-1 cells; Mec-1, 10 nM, day 0",1 Fold Change
same,Rep 2 Live Cells [Fold Change],"Mec-1 cells; Mec-1, 10 nM, day 0",1 Fold Change
same,Rep 1 Live Cells [Fold Change],"Mec-1 cells; Mec-1, 10 nM, day 3",4.77 Fold Change
same,Rep 2 Live Cells [Fold Change],"Mec-1 cells; Mec-1, 10 nM, day 3",4.767 Fold Change
same,Rep 1 Live Cells [Fold Change],"Mec-1 cells; Mec-1, 10 nM, day 6",9.22 Fold Change
same,Rep 2 Live Cells [Fold Change],"Mec-1 cells; Mec-1, 10 nM, day 6",11.6783 Fold Change
same,Rep 1 Live Cells [Fold Change],"Mec-1 cells; Mec-1, 10 nM, day 10",14.1 Fold Change
same,Rep 2 Live Cells [Fold Change],"Mec-1 cells; Mec-1, 10 nM, day 10",14.8315 Fold Change
same,Rep 1 Live Cells [Fold Change],"Mec-1 cells; Mec-1, 10 nM, day 12",6.51 Fold Change
same,Rep 2 Live Cells [Fold Change],"Mec-1 cells; Mec-1, 10 nM, day 12",21.021 Fold Change
same,Rep 1 Live Cells [Fold Change],"Mec-1 cells; Mec-1, 100 nM, day 0",1 Fold Change
same,Rep 2 Live Cells [Fold Change],"Mec-1 cells; Mec-1, 100 nM, day 0",1 Fold Change
same,Rep 1 Live Cells [Fold Change],"Mec-1 cells; Mec-1, 100 nM, day 3",4.7 Fold Change
same,Rep 2 Live Cells [Fold Change],"Mec-1 cells; Mec-1, 100 nM, day 3",5.133 Fold Change
same,Rep 1 Live Cells [Fold Change],"Mec-1 cells; Mec-1, 100 nM, day 6",7 Fold Change
same,Rep 2 Live Cells [Fold Change],"Mec-1 cells; Mec-1, 100 nM, day 6",6.365 Fold Change
same,Rep 1 Live Cells [Fold Change],"Mec-1 cells; Mec-1, 100 nM, day 10",3.48 Fold Change
same,Rep 2 Live Cells [Fold Change],"Mec-1 cells; Mec-1, 100 nM, day 10",6.047 Fold Change
same,Rep 1 Live Cells [Fold Change],"Mec-1 cells; Mec-1, 100 nM, day 12",1.18 Fold Change
same,Rep 2 Live Cells [Fold Change],"Mec-1 cells; Mec-1, 100 nM, day 12",4.755 Fold Change
same,Rep 1 Live Cells [Fold Change],"Mec-1 cells; Mec-1, 1 µM, day 0",1 Fold Change
same,Rep 2 Live Cells [Fold Change],"Mec-1 cells; Mec-1, 1 µM, day 0",1 Fold Change
same,Rep 1 Live Cells [Fold Change],"Mec-1 cells; Mec-1, 1 µM, day 3",3.93 Fold Change
same,Rep 2 Live Cells [Fold Change],"Mec-1 cells; Mec-1, 1 µM, day 3",5.933 Fold Change
same,Rep 1 Live Cells [Fold Change],"Mec-1 cells; Mec-1, 1 µM, day 6",5.81 Fold Change
same,Rep 2 Live Cells [Fold Change],"Mec-1 cells; Mec-1, 1 µM, day 6",5.993 Fold Change
same,Rep 1 Live Cells [Fold Change],"Mec-1 cells; Mec-1, 1 µM, day 10",3.37 Fold Change
same,Rep 2 Live Cells [Fold Change],"Mec-1 cells; Mec-1, 1 µM, day 10",5.304 Fold Change
same,Rep 1 Live Cells [Fold Change],"Mec-1 cells; Mec-1, 1 µM, day 12",1.63 Fold Change
same,Rep 2 Live Cells [Fold Change],"Mec-1 cells; Mec-1, 1 µM, day 12",3.878 Fold Change
same,anti-proliferative potency compared to PRT382,Mec-1 cells; high doses (1µM),similar
same,anti-proliferative potency compared to PRT382,"Mec-1 cells; lower doses (10nM, 100nM)",more potent
Cc1noc(C)c1-c1cnc2c(-c3ccc(C(=O)O)cc3)cn([C@@H](C)c3ccccn3)c2c1 [PLX51107],PRMT5 protein expression,"[1]; 72h 10µM PLX51107, CLL cells stimulated with 21.7 µg/mL CpG, n=5 patients",Reduced
same,PRMT5 mRNA expression,"[1]; 72h 10µM PLX51107, CLL cells stimulated with 21.7 µg/mL CpG, n=8 patients",Reduced
same,PRMT5 Relative Expression (2-ΔCt),"[1]; individual samples, Supplemental Figure 7C",1.507 and 1.2928 and 1.349 and 0.5743 and 1.232 and 0.9553 and 1.659 and 0.935
same,BRD4 occupancy at the PRMT5 locus enhancer,[2],lost
